This is an account of results in PMC11017395 (ACS Medicinal Chemistry Letters, 2024).

As a reminder, the solubility is how much of the substance goes into solution per volume.

Data set [1] relates to drug sensitive (NF54) strain of Pf. Nature of the data set: In vitro antiplasmodium assay, [3H]-hypoxanthine incorporation, NF54. The conditions noted are these: for IC50: mean n ≥ 2. The format is cell-based, Plasmodium falciparum. The method, then:
All target compounds were evaluated for their antiplasmodium activity against the drug sensitive (NF54) strain of Pf and for turbidimetric kinetic solubility.
Aqueous Solubility. Solubility was measured from amorphous solid forms of the compounds using the turbidimetric method. Following the dissolution of test compound in DMSO to make a 10 mM stock solution, a pre-dilution plate was prepared by taking from each stock solution and serially diluting in triplicate to yield concentrations from 0.25 mM to 10.0 mM on a 96 well plate. From each pre-dilution solution, secondary dilutions of the compounds in both DMSO and 0.01M pH 7.4 PBS were prepared in triplicate on a second 96-well plate. Wells in columns 1-6 would contain […]
(§1) nominal concentrations as those in DMSO. The final volume of solvent in each assay plate was 200 µl, prepared by pipetting 4 µl each of solution from the pre-dilution plate to the corresponding well into both DMSO and PBS (both 196 µL). This ensures that the final concentration of DMSO in the […]
(§2) Similarly, a second secondary plate containing
(§3) Different concentrations in DMSO were prepared as controls to determine false turbidimetric absorbance readings arising from the compounds in solution absorbing incident radiation at the test wavelength. Following preparation, the assay plate was covered and left to equilibrate for 2 h at 25 °C. Afterwards, UV-vis absorbance readings from the plate were measured at 620 nm using a SpectraMax 340PC384 microplate reader. Plots of corrected absorbance against compound concentration were computed for a graphical representation of the data using MS Excel. Reserpine and hydrocortisone were used as positive and negative controls, respectively.
(§4) In vitro Antiplasmodium Assay. The compounds were tested using the modified [3H]-hypoxanthine incorporation assay, as previously reported.1
(§5) In vitro Cytotoxicity Assay. Compounds were screened against Chinese Hamster Ovarian (CHO) mammalian cell lines, using the 3-(4,5-dimethylthiazol-2-yl)-2,5-diphenyltetrazoliumbromide […]

The nature of data set [2]: Turbidimetric kinetic aqueous solubility. The format is physicochemical. The conditions noted are these: turbidimetric method, PBS pH 7.4, read-out: Sol. (solubility). The protocol: Aqueous Solubility. Solubility was measured from amorphous solid forms of the compounds using the turbidimetric method. Following the dissolution of test compound in DMSO to make a 10 mM stock solution, a pre-dilution plate was prepared by taking from each stock solution and serially […]
pre-dilution solution, secondary dilutions of the compounds in both DMSO and 0.01M pH 7.4 PBS were prepared in triplicate on a second 96-well plate. Wells in columns 1-6 would contain […]
as §1, §2, §3, §4, §5
It was prepared to 2 mg/ml in distilled water, while the stock solutions of test compounds were prepared to 20 mg/ml in DMSO (100%), […]
lowest being 0.001 µg/ml. […]
of cell suspension in each well and developed afterward by adding 25 µl of sterile MTT (Thermo

Data set [3] has as its system PfK1 multidrug resistant strain. The data set is described as follows: microbe, parasite or virus in culture. The format is cell-based, Plasmodium falciparum.
The subject of another data set is P. berghei. The conditions noted are these: in vivo, po.
For data set [4], the system named is late-stage gametocytes (PfLGc), NF54-PfS16-GFP-Luc. Nature of the data set: Antigametocytic luciferase reporter assay, late stage. The conditions noted are these: Plasmodium falciparum; for inhibition at 1 µM / inhibition at 5 µM: NF54, 48 h; for inhibition at 1 µM: read-out: Late gametocytes (LG) % activity, 1.0 µM; for inhibition at 5 µM: read-out: Late gametocytes (LG) % activity, 5.0 µM. An excerpt: (§6) In vitro Antigametocytic Activity Assay. Gametocytes were produced as per the method reported by Reader and co-workers.3 The luciferase reporter assay was used to enable accurate, reliable and quantifiable investigations of the stage-specific action of gametocytocidal compounds for the early and late gametocyte marker cell line NF54-PfS16-GFP-Luc.
(§7) (representing >90% of either early stage II/III or mature/late stage IV/V gametocytes, respectively). […]
(§8) h drug pressure in a gas chamber (90% N 2, 5% O 2, and 5% CO 2) at 37 °C. Luciferase activity was determined in 30 µl parasite lysates by adding 30 µl luciferin substrate (Promega Luciferase Assay System) at room temperature and detection of resultant bioluminescence at an integration constant of 10s with the GloMax® Explorer Detection System with Instinct® Software. […]
(§9) µM) and internal project specific controls were included as controls. The dual point screens were performed as technical triplicates for a single biological assay.

Data set [5] concerns immature-stage gametocytes (PfiGc), NF54-PfS16-GFP-Luc. Nature of the data set: Antigametocytic luciferase reporter assay, immature/early stage. The conditions noted are these: Plasmodium falciparum; for inhibition at 1 µM / inhibition at 5 µM: NF54, 48 h; for inhibition at 1 µM: read-out: Early gametocytes (EG) % activity, 1.0 µM; for inhibition at 5 µM: read-out: Early gametocytes (EG) % activity, 5.0 µM. For orientation: A reporter such as luciferase makes a cellular process visible.

Data set [6] has as its system late-stages (IV – V) gametocytes. Nature of the data set: microbe, parasite or virus in culture. Conditions: Plasmodium falciparum.
From the text: as §6, §7, §8, §9

For the next data set, the target named is T1, hERG K+ channel (Homo sapiens, UniProt Q12809).
T1 construct: host or cells: CHO K1 (ATCC), stably expressing hERG
Nature of the data set: QPatch hERG assay. It is filed as cell-based. Conditions: CHO K1 cells stably expressing hERG. Background: The patch-clamp technique gives a direct electrical read-out from membranes.

≈ marks a conversion by molar mass, not a printed value. Read-outs that look alike come from different tables or passages of the source.

T1 sequence (Q12809 whole entry): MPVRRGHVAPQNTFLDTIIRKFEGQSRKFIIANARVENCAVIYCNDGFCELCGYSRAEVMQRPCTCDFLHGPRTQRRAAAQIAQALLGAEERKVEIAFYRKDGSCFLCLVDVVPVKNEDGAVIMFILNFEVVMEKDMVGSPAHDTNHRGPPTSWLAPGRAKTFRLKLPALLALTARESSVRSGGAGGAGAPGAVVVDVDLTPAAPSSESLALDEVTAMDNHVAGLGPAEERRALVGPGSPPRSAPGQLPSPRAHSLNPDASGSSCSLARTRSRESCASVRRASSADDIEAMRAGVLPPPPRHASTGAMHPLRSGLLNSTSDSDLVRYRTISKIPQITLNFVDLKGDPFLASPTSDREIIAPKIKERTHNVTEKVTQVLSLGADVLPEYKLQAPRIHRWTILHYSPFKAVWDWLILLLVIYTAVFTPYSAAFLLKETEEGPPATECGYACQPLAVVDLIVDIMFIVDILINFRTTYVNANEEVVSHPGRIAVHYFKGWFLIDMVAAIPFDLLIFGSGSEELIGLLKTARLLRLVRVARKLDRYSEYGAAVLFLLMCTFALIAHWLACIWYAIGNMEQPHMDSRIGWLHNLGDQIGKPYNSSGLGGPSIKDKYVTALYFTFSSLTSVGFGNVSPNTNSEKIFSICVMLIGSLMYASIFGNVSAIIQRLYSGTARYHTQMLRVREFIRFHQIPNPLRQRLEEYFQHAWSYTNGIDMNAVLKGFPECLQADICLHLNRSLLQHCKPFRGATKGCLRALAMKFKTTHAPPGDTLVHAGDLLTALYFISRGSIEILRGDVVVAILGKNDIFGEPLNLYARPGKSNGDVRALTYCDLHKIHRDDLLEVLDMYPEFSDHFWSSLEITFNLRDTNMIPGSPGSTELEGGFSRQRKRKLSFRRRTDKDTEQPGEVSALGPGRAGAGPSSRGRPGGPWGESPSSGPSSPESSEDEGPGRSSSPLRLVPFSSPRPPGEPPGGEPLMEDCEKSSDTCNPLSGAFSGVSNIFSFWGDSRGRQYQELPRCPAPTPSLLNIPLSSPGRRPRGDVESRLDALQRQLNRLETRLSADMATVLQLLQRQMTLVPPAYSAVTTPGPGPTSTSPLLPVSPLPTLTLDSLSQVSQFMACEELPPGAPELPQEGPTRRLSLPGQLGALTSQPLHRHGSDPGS
Protocol for P. berghei: In vivo Antiplasmodium Assay (Swiss TPH).
described,5 with the modification that mice (n = 3) were infected with a GFP -transfected P. berghei
ANKA strain (donated by A. P. Waters and C. J. Janse, Leiden University, The Netherlands), and
parasitemia was determined using standard flow cytometry techniques. The detection limit was 1
parasite in 1000 erythrocytes (that is, 0.1%). The activity was calculated as the difference between
the mean percent parasitemia for the control and treated groups expressed as a percent relative to the
control group. Compounds were dissolved or suspended in a vehicle consisting of 70% Tween -80
and 30% ethanol, followed by a 10 -fold dilution in H 2O and oral administration as four consecutive
Blood samples for the quadruple -dose regimens
The survival time in days was also recorded up to 30
days after infection. A compound was considered curative if the animal survived to day 30 after
infection with no detectable parasites by slide reading .
Protocol for hERG K+ channel: In vitro Liver-stage Assay (P. berghei-sporozoite Infection). In a 24-well plate, HepG2 was seeded
employed as reference drugs. Negative control wells received medium only.
cells were trypsinized and the percentage (%) of infected cells was determined by flow cytometry
(BD LSRFortessa) using at least 10000 events. For determining host cell viability, in a 96-well plate,
h of incubation, a volume 100 µl of medium containing drugs was added and further incubated at 37
°C. Negative control wells received medium only and positive wells received gentian violet. After
Drugs were tested in five different concentrations, each one in

With `F[C@H]1CN(CCc2ccc(-c3noc(C(F)(F)F)n3)cc2)CC[C@@H]1Nc1nc2ccccc2[nH]1` [Compound 8], the “fold improvement of antiplasmodium activity over 7” value in data set [1] (PfNF54) is on record as 1.5 fold. Further, the IC50 was 140 to 650 nM in data set [1] (Plasmodium falciparum, NF54, read-out: PfIC50 NF54, sensitive NF54 strain); 147 nM in data set [1] (read-out: PfIC50 NF54, sensitive NF54 strain); 384 nM in data set [3] (Plasmodium falciparum, K1, read-out: PfIC50 K1). Moreover, in data set [2], the solubility at 2 h came out at 100 µM (≈ 47.4 µg/mL). Moreover, in data set [3], the “RI (resistance index = PfK1 IC50/PfNF54 IC50)” value was found to be 2.61.
In the case of `COC(=O)[C@H]1[C@H]2C[C@@H]3c4[nH]c5cc(OC)ccc5c4CCN3C[C@H]2C[C@@H](OC(=O)c2cc(OC)c(OC)c(OC)c2)[C@@H]1OC` [reserpine, reference compound], in data set [2], the solubility at 2 h is less than 10 µM.
With `CCN(CC)CCCC(C)Nc1ccnc2cc(Cl)ccc12` (stereo not drawn) [CQ, chloroquine], the “MSD (mean survival days)” value in the data set with P. berghei was 24 days.
On to `COc1ccc(CCN2CCC(Nc3nc4ccccc4n3Cc3ccc(F)cc3)CC2)cc1` [AST, astemizole, reference compound], for which the inhibition at 1 µM was determined as 0% in data set [4]; 5% in data set [5]; 13% in data set [6] (read-out: Late gametocytes (LG) % activity, 1.0 µM). Moreover, the inhibition at 5 µM came to 11% in data set [4]; 61% in data set [5]; 52% in data set [6] (read-out: Late gametocytes (LG) % activity, 5.0 µM).
Regarding `CN(C)c1ccc2nc3ccc(N(C)C)cc3[s+]c2c1` [methylene blue, reference compound], the IC50 in data set [5] (NF54, read-out: gametocytes IC50, immature-stage (PfiGc / PfEG), stages I–III, n = 1, technical triplicate) worked out at 200 nM.
In the case of `FC1CN(CCc2ccc(-c3noc(C(F)(F)F)n3)cc2)CCC1Nc1nc2ccccc2[nH]1` (stereo not drawn) [Compound 7], the inhibition at 1 µM was determined as 10.9 ± 2.3% in data set [4] and 0% in data set [5]. For the same compound, the inhibition at 5 µM in data set [4] turned out to be 37.8 ± 0.5%; in data set [5], 27.6 ± 0.8%. Also, the IC50 in data set [4] (NF54, read-out: gametocytes IC50, late-stage (PfLGc / PfLG)) turned out to be 8000 nM; in data set [5] (NF54, read-out: gametocytes IC50, immature-stage (PfiGc / PfEG)) it was 8160 nM. At hERG K+ channel (pH 7.4, QPatch, CHO K1 cells expressing hERG), the IC50 at 4 min amounted to 980 nM. Further, the selectivity ratio at 4 min at hERG K+ channel (pH 7.4, read-out: hERG SI (selectivity index = hERG IC50/PfNF54 IC50)) was 4.47. Further, the solubility at 2 h in data set [2] (PBS buffer) came to 120 µM (≈ 56.9 µg/mL).
